The values that follow come from US10947252B2, “Inhibitors of KEAP1-Nrf2 protein-protein interaction” (Janssen Pharmaceutica NV, priority 2018, dated 2021).

Molecules are shown by their SMILES.

As usually defined, the Kd is the constant that tells how readily two partners part at equilibrium. For orientation: EC50 means the concentration needed to bring the measured effect to its halfway point. A high value points to lower potency in that assay.

The target of test [1] is Kelch domain of human KEAP1 (321-624 aa) (Homo sapiens (Human), UniProt Q14145). In words: KEAP1 KELCH ThermoFluor binding assay.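 Note: Ligand-induced melting temperature shift of E. coli-expressed KEAP1 Kelch protein, Kd estimated from concentration-response curves of ΔTm.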 The conditions noted are these: KEAP Kelch […], 1,8-ANS, pH 7.0, average of results obtained, read-out: Tf Kd. Background: Differential scanning fluorimetry follows unfolding on heating by fluorescence.
Kelch domain of human KEAP1 (321-624 aa), sequence (Q14145 321-624): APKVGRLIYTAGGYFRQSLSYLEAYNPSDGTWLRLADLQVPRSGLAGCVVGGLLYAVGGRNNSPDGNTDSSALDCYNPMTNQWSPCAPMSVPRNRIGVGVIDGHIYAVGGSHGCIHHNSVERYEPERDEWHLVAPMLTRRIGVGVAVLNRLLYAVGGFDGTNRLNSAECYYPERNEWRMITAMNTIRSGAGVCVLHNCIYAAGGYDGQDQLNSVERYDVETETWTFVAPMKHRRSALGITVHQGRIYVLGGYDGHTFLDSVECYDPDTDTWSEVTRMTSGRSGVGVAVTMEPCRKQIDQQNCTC
For test [2], the system named is Glo-Response ARE-luc2P HEK293 cell line. Description: ARE luciferase reporter cell-based assay.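 Note: luciferase signal tracks Nrf2 activation of the ARE once compounds disrupt KEAP1-Nrf2 binding, read with One-Glo reagent, DMSO serving as low control.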 The conditions noted are these: Homo sapiens, HEK293, 24 h, average of results obtained. For orientation: A reporter such as luciferase makes a cellular process visible.

In the case of `Cc1ccc([C@@H](CC(=O)O)c2ccn3c(C(F)(F)F)nnc3c2C)cc1CN1CC2(COC2)Oc2ccccc2S1(=O)=O` (single isomer, unassigned) [Example 288, (*R)-3-(3-((1,1-dioxidospiro[benzo[b][1,4,5]oxathiazepine-4,3′-oxetan]-2(3H)-yl)methyl)-4-methylphenyl)-3-(8-methyl-3-(trifluoromethyl)-[1,2,4]triazolo[4,3-a]pyridin-7-yl)propanoic Acid], the Kd in test [1] is under 1 nM. Also, the EC50 in test [2] is 123 nM.
The matching figures for `Cc1ccc([C@H](CC(=O)O)c2ccn3c(C(F)(F)F)nnc3c2C)cc1CN1C[C@@H]2CCCCN2c2ncccc2S1(=O)=O` (single isomer, unassigned) [Example 290, (*S)-3-(3-(((*S)-5,5-Dioxido-7,7a,8,9,10,11-hexahydro-6H-dipyrido[2,1-d:2′,3′-f][1,2,5]thiadiazepin-6-yl)methyl)-4-methylphenyl)-3-(8-methyl-3-(trifluoromethyl)-[1,2,4]triazolo[4,3-a]pyridin-7-yl)propanoic Acid]: under 1 nM and 8.8 nM.
On to `Cc1ccc([C@@H](CC(=O)O)c2ccn3c(C(F)(F)F)nnc3c2C)cc1CN1C[C@@H]2CCCCN2c2ncccc2S1(=O)=O` (single isomer, unassigned) [Example 291, (*R)-3-(3-(((*S)-5,5-Dioxido-7,7a,8,9,10,11-hexahydro-6H-dipyrido[2,1-d:2′,3′-][1,2,5]thiadiazepin-6-yl)methyl)-4-methylphenyl)-3-(8-methyl-3-(trifluoromethyl)-[1,2,4]triazolo[4,3-a]pyridin-7-yl)propanoic Acid], for which the Kd in test [1] was under 1 nM. Moreover, the EC50 in test [2] stood at 86.8 nM.
For `Cc1ccc([C@H](CC(=O)O)c2ccn3c(C(F)(F)F)nnc3c2C)cc1CN1C[C@@H]2CCN2c2ncccc2S1(=O)=O` (single isomer, unassigned) [Example 292, (*S)-3-(3-(((*S)-5,5-Dioxido-7,7a,8,9-tetrahydro-6H-azeto[2,1-d]pyrido[2,3-f][1,2,5]thiadiazepin-6-yl)methyl)-4-methylphenyl)-3-(8-methyl-3-(trifluoromethyl)-[1,2,4]triazolo[4,3-a]pyridin-7-yl)propanoic Acid], in that order: under 1 nM and 68.3 nM.
For the compound `Cc1ccc([C@@H](CC(=O)O)c2ccn3c(C(F)(F)F)nnc3c2C)cc1CN1C[C@@H]2CCN2c2ncccc2S1(=O)=O` (single isomer, unassigned) [Example 293, (*R)-3-(3-(((*S)-5,5-Dioxido-7,7a, 8,9-tetrahydro-6H-azeto[2,1-d]pyrido[2,3-f][1,2,5]thiadiazepin-6-yl)methyl)-4-methylphenyl)-3-(8-methyl-3-(trifluoromethyl)-[1,2,4]triazolo[4,3-a]pyridin-7-yl)propanoic Acid], the Kd in test [1] was 2.55 nM. Also, it took 899 nM to reach a half-maximal effect in test [2] (EC50).
The matching figures for `Cc1ccc([C@H](CC(=O)O)c2ccn3c(C(F)(F)F)nnc3c2C)cc1CN1C[C@H]2CCN2c2ncccc2S1(=O)=O` (single isomer, unassigned) [Example 294, (*S)-3-(3-(((*R)-5,5-Dioxido-7,7a, 8,9-tetrahydro-6H-azeto[2,1-d]pyrido[2,3-f][1,2,5]thiadiazepin-6-yl)methyl)-4-methylphenyl)-3-(8-methyl-3-(trifluoromethyl)-[1,2,4]triazolo[4,3-a]pyridin-7-yl)propanoic Acid]: 1.61 nM and 270 nM.
As to `Cc1ccc([C@@H](CC(=O)O)c2ccn3c(C(F)(F)F)nnc3c2C)cc1CN1C[C@H]2CCN2c2ncccc2S1(=O)=O` (single isomer, unassigned) [Example 295, (*R)-3-(3-(((*R)-5,5-Dioxido-7,7a,8,9-tetrahydro-6H-azeto[2,1-d]pyrido[2,3-f][1,2,5]thiadiazepin-6-yl)methyl)-4-methylphenyl)-3-(8-methyl-3-(trifluoromethyl)-[1,2,4]triazolo[4,3-a]pyridin-7-yl)propanoic Acid], the Kd in test [1] came out at 8.07 nM. In test [2], this compound had an EC50 of 2090 nM.
